Data on 19 compounds can be found in patent US10239859B2, “Nitrogen-containing heterocycles as pesticides” (Bayer CropScience Aktiengesellschaft, priority 2015, dated 2019).

Like-named read-outs stand apart in the source and are kept apart here.

For one data set, the system named is Ctenocephalides felis. In words: Ctenocephalides felis oral test. Format: in vivo. Particulars: 100 ppm in citrated cattle blood, adult cat fleas, after 2 days. As for the experimental part:
Ctenocephalides felis—Oral Test
(§1) Solvent: dimethyl sulphoxide
To produce a suitable active compound preparation, 10 mg of active compound are mixed with 0.5 ml of dimethyl sulphoxide. Dilution with citrated cattle blood gives the desired concentration.
About 20 unfed adult cat fleas (Ctenocephalides felis) are placed into a chamber which is closed at the top and bottom with gauze. A metal cylinder whose bottom end is closed with parafilm is placed onto the chamber. The cylinder contains the blood/active compound preparation, which can be imbibed by the fleas through the parafilm membrane.
After 2 days, the kill in % is determined. 100% means that all of the fleas have been killed; 0% means that none of the fleas have been killed.

The next data set has as its system Lucilia cuprina. Put plainly: Lucilia cuprina test. The format is in vivo. To be noted: 100 ppm, L1 larvae, after 2 days. As for the experimental part:
as §1
To produce a suitable active compound preparation, 10 mg of active compound are mixed with 0.5 ml of dimethyl sulphoxide, and the concentrate is diluted with water to the desired concentration.
About 20 L1 larvae of the Australian sheep blowfly (Lucilia cuprina) are transferred into a test vessel containing minced horsemeat and the active compound preparation of the desired concentration.
After 2 days, the kill in % is determined. 100% means that all the larvae have been killed; 0% means that no larvae have been killed.

A further data set deals with Myzus persicae. In words: Myzus persicae spray test (Chinese cabbage leaf discs). The format is in vivo. Particulars: after 6 days. The method, then:
Myzus persicae—Spray Test
Solvent: 78 parts by weight of acetone • • 1.5 parts by weight of dimethylformamide
(§2) Emulsifier: alkylaryl polyglycol ether
(§3) To produce a suitable active compound preparation, 1 part by weight of active compound is dissolved with the stated parts by weight of solvent and made up with water containing an emulsifier concentration of 1000 ppm until the desired concentration is attained. To produce further test concentrations, the preparation is diluted with emulsifier-containing water.
Discs of Chinese cabbage leaves (Brassica pekinensis) infested by all stages of the green peach aphid (Myzus persicae) are sprayed with an active compound preparation of the desired concentration.
After 6 days, the efficacy in % is determined. 100% means that all the aphids have been killed; 0% means that no aphids have been killed.

In a further data set the test system is Phaedon cochleariae. In words: Phaedon cochleariae spray test. The format is in vivo. Particulars: 500 g/ha, larvae on Chinese cabbage leaf discs, after 7 days. The method, then:
Phaedon cochleariae—Spray Test
(§4) Solvent: 78.0 parts by weight of acetone • • 1.5 parts by weight of dimethylformamide
as §2, §3
After 7 days, the efficacy in % is determined. 100% means that all the beetle larvae have been killed; 0% means that no beetle larvae have been killed.

The subject of another data set is Tetranychus urticae. In words: Tetranychus urticae spray test, OP-resistant. Particulars: 500 g/ha, bean leaf discs, after 6 days. The format is in vivo. The method, then: Tetranychus urticae—Spray Test, OP-Resistant
as §4, §2, §3
Discs of bean leaves (Phaseolus vulgaris) infested with all stages of the greenhouse red spider mite (Tetranychus urticae) are sprayed with an active compound preparation of the desired concentration.
After 6 days, the efficacy in % is determined. 100% means that all the spider mites have been killed; 0% means that no spider mites have been killed.

The nature of data set [1]: log P determination by HPLC on reversed-phase C18 columns (OECD Guideline 117). The format is physicochemical. As for the experimental part:
The log P values were determined in accordance with OECD Guideline 117 (EC Directive 92/69/EEC) by HPLC (high-performance liquid chromatography) using reversed-phase (RP) columns (C18), by the following methods:
[a] The LC-MS determination in the acidic range is effected at pH 2.7 with 0.1% aqueous formic acid and acetonitrile (contains 0.1% formic acid) as eluents; linear gradient from 10% acetonitrile to 95% acetonitrile.
[b] LC-MS determination in the neutral range is effected at pH 7.8 with 0.001 molar aqueous ammonium hydrogencarbonate solution and acetonitrile as eluents; linear gradient from 10% acetonitrile to 95% acetonitrile.

Setting [2] is: reversed-phase C18 HPLC column, acidic range, pH 2.7, 0.1% aqueous formic acid / acetonitrile, read-out: logP value (HCOOH).
The mark [3] stands for this setting: reversed-phase C18 HPLC column, neutral range, pH 7.8, 0.001 molar aqueous ammonium hydrogencarbonate / acetonitrile, read-out: LogP value (neutral).

As to `N#C/N=c1\ccccn1-c1ccc(C(F)(F)F)nc1` [Example 1, [1-[6-Trifluoromethylpyridin-3-yl]-2(1H)-pyridinylidene]cyanamide], the “efficacy (kill)” value stood at 95% in the data set on Ctenocephalides felis and 100% in the data set with Lucilia cuprina. Besides, the efficacy in the data set with Myzus persicae (500 g/ha), with Phaedon cochleariae and in the data set with Tetranychus urticae was 100% each time.
Take `N#C/N=c1\ccccn1-c1ccc(Br)nc1` [Example 2, [1-[6-Bromopyridin-3-yl]-2(1H)-pyridinylidene]cyanamide]: the chromatographic logP in data set [1] (setting [2]) was 1.07. The compound further returned an efficacy with Myzus persicae (100 g/ha) of 90%.
Consider `Cc1ccc(-n2cccc/c2=N\C#N)cn1` [Example 3, [1-[6-Methylpyridin-3-yl]-2(1H)-pyridinylidene]cyanamide], for which, in data set [1] (setting [2]), the chromatographic logP was found to be 0.46. Also, the results for the efficacy in the data set with Myzus persicae (100 g/ha) and in the data set on Phaedon cochleariae were 90% and 100%, respectively.
For `O=C(/C=C1\C=CC=CN1c1ccc(C(F)(F)F)nc1)C(F)(F)F` [Example 4, (3E)-3-[1-(6-Trifluoromethyl-3-pyridinyl)-2(1H)-pyridinylidene]-1,1,1-trifluoro-2-propanone], in data set [1] (setting [2]), the chromatographic logP was 2.2. The “efficacy (kill)” value in the data set with Lucilia cuprina is 100%. The same compound registered an efficacy in the data set with Myzus persicae (500 g/ha) of 90%.
Turning to `O=C(/N=c1\ccccn1-c1ccc(C(F)(F)F)nc1)C(F)(F)F` [Example 7], the chromatographic logP in data set [1] (setting [2]) was 2.19. Further, the “efficacy (kill)” value in the data set on Lucilia cuprina is 95%. In addition, in the data set on Myzus persicae (500 g/ha), the efficacy is listed as 100%.
In the case of `N#C/N=c1\ccccn1-c1ccc(F)nc1` [Example 8, [1-[6-Fluoropyridin-3-yl]-2(1H)-pyridinylidene]cyanamide], the chromatographic logP in data set [1] (setting [2]) was 0.7. The efficacy amounted to 90% in the data set on Myzus persicae (500 g/ha) and 100% in the data set on Phaedon cochleariae.
Take `N#C/N=c1\ccccn1-c1ccc(-n2cnc(Cl)n2)nc1` [Example 24, [1-[6-(3-Chloro-1,2,4-triazol-1-yl)pyridin-3-yl]-2-(1H)-pyridinylidene]cyanamide]: in data set [1] (setting [3]), the chromatographic logP worked out at 1.39.
As for `O=c1ccccn1-c1ccc(C(F)(F)F)nc1` [IV-1, 6′-Trifluoromethyl-[1(2H),3′-bipyridin]-2-one], the chromatographic logP in data set [1] (setting [2]) stood at 1.26.
Consider `O=c1ccccn1-c1ccc(Br)nc1` [IV-2, 6′-Bromo-[1(2H), 3′-bipyridin]-2-one], for which, in data set [1] (setting [2]), the chromatographic logP stood at 0.95.
Still for that read-out and setting: then `N#Cc1cccn(-c2ccc(Cl)nc2)c1=O` [IV-4, 1,2-Dihydro-2-oxo-1-(6-chloropyridin-3-yl)-3-pyridinecarbonitrile], with 1; and `O=c1ccccn1-c1ccc(Cl)nc1` [IV-14, 6′-chloro-[1(2H),3′-bipyridin]-2-one], with 0.67; and `O=c1ccccn1-c1ccc(-n2cnc(Cl)n2)nc1` [IV-29, 6′-(3-Chloro-1,2,4-triazol-1-yl)-[1(2H), 3′-bipyridin]-2-one], with 1.23.
Turning to `O=c1ccccn1-c1ccc(C(F)(F)C(F)(F)C(F)(F)F)nc1` [IV-31, 6′-Heptafluoropropyl-[1(2H),3′-bipyridin]-2-one], the chromatographic logP in data set [1] (acidic range, pH 2.7, 0.1% aqueous formic acid / acetonitrile, read-out: logP value (HCOOH)) came out at 2.26.
Take `O=c1ccccn1-c1ccc(C(F)(C(F)(F)F)C(F)(F)F)nc1` [IV-32, 6′-(1,1,1,2,3,3,3-Heptafluoropropyl)-[1(2H), 3′-bipyridin]-2-one]: the chromatographic logP in data set [1] (setting [2]) came to 2.4.
In the case of `O=c1ccccn1-c1ccc(C(F)(F)C(F)(F)F)nc1` [IV-33, 6′-Pentafluoroethyl-[1(2H), 3′-bipyridin]-2-one], in data set [1] (setting [2]), the chromatographic logP was determined as 1.94.
Take `Cc1ccc(-n2ccccc2=S)cn1` [VI-1, 6′-Methyl-[1(2H),3′-bipyridine]-2-thione]: the chromatographic logP in data set [1] (setting [2]) amounted to 0.51.
In the case of `FC(F)(F)c1ccc(-n2ccccc2=S)cn1` [VI-2, 6′-trifluoromethyl-[1(2H),3′-bipyridine]-2-thione], the chromatographic logP in data set [1] (setting [2]) came out at 1.7.
Turning to `S=c1ccccn1-c1ccc(-n2cnc(Cl)n2)nc1` [VI-5, 6′-(3-Chloro-1,2,4-triazol-1-yl)-[1(2H), 3′-bipyridine]-2-thione], the chromatographic logP in data set [1] (setting [3]) was 1.58.
“[1-[[6-(3-Trifluoromethylpyrazol-1-yl)pyridin-3-yl]-2-(1H)-pyridinylidene]cyanamide [Example 25]”: the “LogP value (neutral)” value in data set [1] (pH 7.8) was found to be 2.23.
